Laboratory results taken from ChEMBL document CHEMBL1158874, “Elgonica-Dimers A and B, Two Potent Alcohol Metabolism Inhibitory Constituents of Aloe arborescens” (J Nat Prod, 1997).

Assays:
[1] = target: T1, Aldehyde dehydrogenase, cytosolic 1 (Rattus norvegicus, UniProt P13601); test: Inhibition of Sprague-Dawley rat cytosolic aldehyde dehydrogenase
T1 sequence (P13601 whole entry): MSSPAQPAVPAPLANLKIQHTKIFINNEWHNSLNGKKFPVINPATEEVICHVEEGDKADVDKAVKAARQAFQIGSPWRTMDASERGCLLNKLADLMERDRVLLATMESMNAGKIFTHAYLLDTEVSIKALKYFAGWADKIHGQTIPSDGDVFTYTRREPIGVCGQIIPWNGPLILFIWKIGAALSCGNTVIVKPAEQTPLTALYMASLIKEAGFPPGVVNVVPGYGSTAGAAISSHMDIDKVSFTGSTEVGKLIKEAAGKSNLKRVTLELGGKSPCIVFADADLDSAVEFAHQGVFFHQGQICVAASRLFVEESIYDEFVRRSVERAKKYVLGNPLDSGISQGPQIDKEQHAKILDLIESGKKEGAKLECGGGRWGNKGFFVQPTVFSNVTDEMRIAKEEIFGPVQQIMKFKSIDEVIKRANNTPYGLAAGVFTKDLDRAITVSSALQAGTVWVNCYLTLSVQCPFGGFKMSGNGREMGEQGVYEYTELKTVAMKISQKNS

[2] = Inhibition of Sprague-Dawley rat cytosolic alcohol dehydrogenase
[3] = target: T2, Aldehyde dehydrogenase, mitochondrial (Rattus norvegicus, UniProt P11884); test: Inhibition of Sprague-Dawley rat mitochondrial aldehyde dehydrogenase
T2 sequence (P11884 whole entry): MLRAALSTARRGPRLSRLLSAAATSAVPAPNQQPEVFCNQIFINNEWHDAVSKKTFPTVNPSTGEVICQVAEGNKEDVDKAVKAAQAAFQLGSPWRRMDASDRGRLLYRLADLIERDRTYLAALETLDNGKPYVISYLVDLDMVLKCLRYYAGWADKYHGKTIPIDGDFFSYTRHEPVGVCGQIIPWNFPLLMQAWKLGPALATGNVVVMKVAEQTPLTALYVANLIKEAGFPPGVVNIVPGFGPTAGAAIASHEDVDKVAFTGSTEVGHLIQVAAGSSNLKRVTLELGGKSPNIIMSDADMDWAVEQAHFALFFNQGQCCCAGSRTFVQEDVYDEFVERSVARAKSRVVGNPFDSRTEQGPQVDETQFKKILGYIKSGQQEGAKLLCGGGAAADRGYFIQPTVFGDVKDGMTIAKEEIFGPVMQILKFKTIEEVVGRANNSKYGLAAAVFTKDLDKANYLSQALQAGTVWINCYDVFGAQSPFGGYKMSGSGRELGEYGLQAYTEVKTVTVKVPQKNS

Row | SMILES | IC50 [1] [µM] | IC50 [2] [µM] | IC50 [3] [µM]
1 | O=C1c2cccc(O)c2C(=O)c2c(O)cc(CO)cc21 [ALOE-EMODIN] | 6 | 24.4 | 
2 | COc1cc(-c2c(C)cc(O)cc2O[C@@H]2O[C@@H](CO)[C@@H](O)[C@H](O)[C@H]2O)oc(=O)c1 [ALOENIN] | 27 | 33.1 | 
3 | c1cn[nH]c1 [PYRAZOLE] |  | 9.8 | 

Further lines, results first:

Row | IC50 [1] [µM] | IC50 [2] [µM] | IC50 [3] [µM] | SMILES
4 | 0.16 | 0.055 | 0.36 | O=C1c2cc(CO)cc(O)c2C(=O)c2c1ccc(C1(C3O[C@H](CO)[C@@H](O)[C@H](O)[C@H]3O)c3cccc(O)c3C(=O)c3c(O)cc(CO)cc31)c2O (stereo partly drawn) [listing 1 of 2 here]
5 | 300 |  | 5.6 | C#CCN(C)Cc1ccccc1 [PARGYLINE]
6 | 0.53 | 0.011 | 0.72 | O=C1c2cc(CO)cc(O)c2C(=O)c2c1ccc(C1(C3O[C@H](CO)[C@@H](O)[C@H](O)[C@H]3O)c3cccc(O)c3C(=O)c3c(O)cc(CO)cc31)c2O (stereo partly drawn) [listing 2 of 2 here]
